Consider 3 molecules from patent publication US5770595A, “Oxime substituted therapeutic compounds” (Cell Therapeutics, Inc., priority 1994, dated 1998).

In test [1] the test system is polymorphonuclear leukocytes. The following applies: in response to a stimulator of chemotaxis; U.S. Pat. No. 4,636,507; cited from earlier work.
The conditions of test [2]: U.S. Pat. Nos. 4,515,795 and 4,576,947; cited from earlier work.
Test [3] concerns VCAM in HUVEC cells. The test can be described thus: cell surface expression of VCAM in HUVEC. The format is cell-based, human. Conditions: protocol similar to Example 20; FIG. 17. On the procedure: Drug inhibitory activity can also be measured by determining levels of vascular cell adhesion molecule (VCAM) in stimulated cells. Early passage human umbilical vein endothelial cells (HUVEC) (obtained from commercial suppliers such as Cell Systems, Inc. or Clonetics) are cultured in media (e.g., Hepes buffered media, Cell Systems) containing 10% fetal bovine serum, and supplemented with a stimulating agent, such as fibroblast growth factor (acidic FGF, Cell Systems, Inc.) or TNF. The cells are plated into wells of a microtiter plate (e.g., 5×10^4 per well) and allowed to incubate at 37° C. for 72 hrs. The resting cells are removed (e.g., 20-30 min treatment with 0.4% EDTA), washed in media (e.g., phosphate buffered saline plus 0.1% bovine serum albumin with 0.01% sodium azide) and labeled on ice with a monoclonal antibody ("first antibody") recognizing human VCAM (e.g., 1 μg of a murine monoclonal antibody recognizing human VCAM, Genzyme). After 60 min on ice, the cells are washed (preferably twice) with cold wash media and incubated with an antibody that recognizes the first antibody (e.g., 1 μg of goat anti-mouse IgG conjugated with phycoerythrin, CalTag, Inc.). After 30 min on ice, the cells are washed twice and analyzed on a flow cytometer (Coulter Elite®) at appropriate emission and excitation wavelengths (e.g., for phycoerytlrin use excitation at 488 nm and emission at 525 nm).
The cells were stimulated with human TNF-α (20 ng/ml) for 20 hours and then stained for immunofluorescence using a monoclonal antibody recognizing VCAM, followed by a goat anti-mouse antibody conjugated to phycoerythrin. The cells were analyzed for antibody binding using flow cytometry. […] 1521 and 1522 at the indicated drug concentrations.
This example was used to investigate inhibition of vascular cell adhesion molecule (VCAM) expression on HUVEC by inventive compound no. 2525. VCAM expression by endothelial cells is an early event in atherogenesis and multiple sclerosis, among other various autoimmune diseases. FIG. 17, a plot of percent surface expression versus concentration of compound no.

Test [4] concerns THP-1 cells / TNFα-activated HUVEC. The test can be described thus: THP-1 cell adhesion to TNFα-activated HUVEC. The format is cell-based, human. The following applies: 0.1 to 10 μM. The source says:
This example illustrates inhibitive activity of inventive compound no. 2525 on THP-1 cell adhesion to TNFα-activated HUVEC. In an investigative assay, representative of the protocol employed in Example 23, HUVEC were stimulated with TNF α instead of IL-1β. As shown by results reported in FIG. 15, non-stimulated background adherence was approximately 1000 relative units, increasing to approximately 3000 under TNF stimulation.

In test [5] the test system is ICAM in HUVEC cells. The test can be described thus: cell surface expression of ICAM in HUVEC. The format is cell-based. The following applies: human TNF-α 20 ng/ml, 20 hours. As for the experimental part:
2525 to inhibit cell surface expression of ICAM in HUVEC cells. The cells were stimulated with human TNF-α (20 ng/ml) for 20 hours and then stained for immunofluorescence using a monoclonal antibody recognizing ICAM, followed by a goat anti-mouse antibody conjugated to phycoerythrin. The cells were analyzed for antibody binding using flow cytometry. FIG. 16 reports % surface expression, determined by analysis of mean fluorescence intensity of cells analyzed by flow cytometry, for compound no. 2525, at concentration shown. As reported, compound no.

Test [6] concerns THP-1 cells / IL-1β-activated HUVEC. The test is described as follows: THP-1 cell adhesion to IL-1β-activated HUVEC. The format is cell-based, human. The following applies: IL-1β 10 ng/ml, 8 hours; between 1.0 and 10 μM. As for the experimental part:
This example illustrates inhibitive activity of inventive compound no. 2525 on THP-1 cell adhesion to IL-1β-activated HUVEC. In an investigative assay, HUVEC were stimulated with IL-1β (10 ng/ml), both in the absence and presence of varying concentrations of inventive compound for 8 hours in a 96-well microtiter plate. In the wellplate, human monocytic leukemia cell line THP-1 cells were added at 50,000 cells per well. The THP-1 cells were pre-incubated with BCECF, a fluorescence dye that can be use to measure cell number using a fluorescence plate reader. After 10 minutes at 37° C., the microtiter plate was inverted and spun at 900 rpm. The remaining adhering THP-1 cells were then analyzed. […] The inventive compound no.

Test [7] has as its system murine thymocyte. The test is described as follows: thymocyte proliferation stimulated by ConA and IL-2. The format is cell-based, murine (female Balb/C mice). Conditions: ConA, IL-2 15 U/ml; FIG. 18 (IC50 curve). On the procedure:
A thymocyte costimulator assay is conducted to evaluate the inventive compounds to inhibit activation and proliferation of thymocytes caused by stimulation with Con A and interleukin-1 (IL-1), or […]. Thymuses are obtained from mice (e.g., female Balb/C mice) and the thymuses are removed and dissociated into culture media (e.g., RPMI 1640 without serum supplementation). The dissociated thymus tissue and cell suspension is transferred to centrifuge tubes and allowed to settle, washed with HBSS and resuspended in serum-supplemented culture media (e.g., RPMI 1640 with 10% fetal calf serum). Any contaminating red cells are lysed, and viable cells are resuspended and counted. Thymocytes are plated (e.g., 96-well plates at a density of 2×10^5 cells/well) and a stimulating agent, such as Con A, IL-1 (e.g., IL-1α) or IL-2 is added to the well. The cells are incubated for 4 days at 37° C. On the fourth day, the cells are pulsed with tritiated thymidine and cell proliferation determined. […]
1522 on inhibition of thymocyte proliferation stimulated by ConA and interleukin-2 (IL-2) (20 ng/ml). Compound no. […]
Thymuses, obtained from normal, female Balb/C mice, were dissociated and plated into 96-well plates at a density of 2×10^5 cells/well. […] The amount of tritiated thymidine dye incorporated by the harvested cells was determined in a liquid scintillation counter. […]

The test system of test [8] is PBMC (peripheral blood mononuclear cells). The test is described as follows: two-way mixed lymphocyte reaction. The format is cell-based, human. The following applies: Example 28; protocol similar to Example 10. An excerpt:
Various in vitro assays can be used to measure effects of the inventive compounds to module immune activity and have antitumor activity using a variety of cellular types. For example, a mixed lymphocyte reaction (MLR) provides a valuable screening tool to determine biological activity of each inventive compound. In the MLR, PBMCs (peripheral blood mononuclear cells) are obtained by drawing whole blood from healthy volunteers in a heparinized container and diluted with an equal volume of hanks balanced salt solution (HBSS). This mixture is layered on a sucrose density gradient, such as a Ficoll-Hypaque® gradient (specific gravity 1.08), and centrifuged at 1000×g for 25 minutes at room temperature or cooler. PBMC are obtained from a band at a plasma-Ficoll interface, separated and washed at least twice in a saline solution, such as HBSS. Contaminating red cells are lysed, such as by ACK lysis for 10 min at 37° C., and the PBMCs are washed twice in HBSS. The pellet of purified PBMCs is resuspended in complete medium, such as RPMI 1640 plus 20% human inactivated serum. Proliferative response of PBMC to allogeneic stimulation is determined in a two-way MLR performed in a 96-well microtiter plate. Briefly, approximately 10^5 test purified PBMC cells in 200 μl complete medium are co-cultured with approximately 10^5 autologous (control culture) or allogeneic (stimulated culture) PBMC cells, wherein the allogeneic cells are from HLA disparate individuals. Varying doses of compounds (drug) are added at the time of addition of cells to the microtiter plate. The cultures are incubated for 6 days at 37° C. in a 5% CO2 atmosphere. At the conclusion of the incubation tritiated thymidine is added (for example, 1 μCi/well of 40 to 60 Ci/mmole) and proliferation determined by liquid scintillation. counting.
Example 10 illustrates a mixed lymphocyte reaction of inventive compounds nos. 1521 and 1522 (see above for chemical name and structure). […] Both compounds nos. […]

`CC(O)CCCCn1c(=O)c2c(ncn2C)n(C)c1=O` (centres unmarked) [M1, 1-(5-hydroxyhexyl)-3,7-dimethylxanthine]: the “stimulation of chemotaxis in polymorphonuclear leukocytes” value in test [1] is “stimulate chemotaxis in polymorphonuclear leukocytes”. Besides, in test [2], the cerebral blood flow result was “increasing cerebral blood flow”.

Regarding `CC(CCCCCCCCCCn1c(=O)c2c(ncn2C)n(C)c1=O)=NO` [compound 2525], the “inhibition of VCAM surface expression” value in test [3] was “able to inhibit surface expression of VCAM”. The “inhibition of THP-1 adhesion to TNFα-activated HUVEC” value in test [4] is given as “significantly inhibited THP-1 adhesion”. For the same molecule, in test [5], the “inhibition of ICAM surface expression” value is “inhibited ICAM surface expression”. Moreover, the “inhibition of THP-1 adhesion to IL-1β-activated HUVEC” value in test [6] is given as “significantly inhibited THP-1 adhesion”.

For the molecule `CC(CCCCCCCCCn1c(=O)c2c(ncn2C)n(C)c1=O)=NO` [compound 2514], the “inhibition of thymocyte proliferation, ConA + IL-2” value in test [7] is “inhibit thymocyte proliferation and activation”. The “proliferative response of lymphocytes in mixed lymphocyte reaction” value in test [8] is listed as “showed activity in this immune modulating activity assay procedure”.
